Columns and labels:
[1] = tested on: serum ALT activity induced by CCl4; test: Protective effect against acute hepatic damage induced by carbon tetrachloride (serum ALT); assay type: in vivo; details: Mus musculus; mice, 50 mg/kg oral, 6 h before CCl4 (50 ul/kg oral); ALT 24 h after CCl4; read-out: Inhibitory (%): protective effect against increase of serum ALT activity induced by CCl4
Description: Principle; Carbon tetrachloride (CCl4) is a well-known hepatotoxic agent, thus widely used to produce experimental animal models for screening the potential drugs acting upon hepatic diseases. In this experiment test compounds were administered to mice prior to treatment with CCl4. 24 Hours after the CCl4 treatment, the animals were sacrificed and serum alanine aminotransferase (ALT) levels were determined. The hepatoprotective effect of a test compound was evaluated by the suppressive action against the increase of serum ALT induced by CCl4.
Method; The experimental animals were divided into normal, CCl4 treated and test compound treated groups. Each group consisted of 8 mice with body weight of 20-25 grams. The test compounds were suspended in 0.2% sodium carboxy methyl cellulose (CMC-Na) solution and administered orally at the dose of 50 mg/125 ml/kg body weight. Only the vehicle, 0.2% CMC-Na solution, was administered to the normal and to the CCl4 treated group instead of the test compound suspension. 6 Hours after the drug administration, the CCl4 solution in olive oil was administered orally to the CCl4 treated- and the test compound treated group at the dose of 50 ul/25 ml olive oil/kg body weight. The normal group was administered olive oil only at the same dose. 24 Hours after the CCl4 administration, blood samples were collected from the orbital sinus of the animals and the sera were obtained by centrifugation The serum ALT activities were monitored using an automatic blood analyzer (Gilford, SBA 300). The hepatoprotective effect of the test compounds was expressed by the suppressive percentage against the increase of serum ALT level induced by CCl4 calculated by the following formula; [formula]

[2] = tested on: serum ALT level after CCl4 treatment; test: Determination of 50% inhibitory dose (ID50) against CCl4-induced serum ALT increase; assay type: in vivo; details: Mus musculus; mice, oral, 6 h before CCl4; estimated from dose-response curve at 50, 25, 12.5, 6.25 mg/kg
Description: Principle The various doses of test compounds were administered to mice, followed by the treatment with CCl4 after 6 hours. 24 Hours after the CCl4 treatment, the serum ALT level of the animals were determined. The hepatoprotective effect of the test compounds and the doses were plotted to form dose-response curves. The ID50 doses of the test compounds were estimated from the dose-response curves.
Method; The experimental animals were divided into normal, CCl4 treated and test compound treated groups. Each group consisted of 8 mice with body weight of 20-25 grams. The test compounds were suspended in 0.2% CMC-Na solution and administered orally at a dose of 50 mg, 25 mg, 12.5 mg, or 6.25 mg/125 ml/kg body weight. Only the vehicle, 0.2% CMC-Na solution, was administered to the normal and to the CCl4 treated group instead of the test compound suspension. 6 Hours after the drug administration, the CCl4 solution in olive oil was administered orally to the CCl4 treated and the test compound treated groups at the dose of 50 ul/25 ml olive oil/kg body weight. The normal group was administered olive oil only at the same dose. 24 Hours after the CCl4 administration, blood samples were collected from the orbital sinus of the animals and the sera were obtained by centrifugation. The serum ALT activities were monitored and the hepatoprotective effect of the test compounds were calculated by the same method as described in experiment 1. The inhibitory percentages were plotted against the corresponding doses of the test compounds to make dose-response curves. The 50% inhibitory dose of test compound was estimated from the dose-response curve.

[3] = Acute oral toxicity, median lethal dose (LD50); details: mouse, in vivo, male ICR mice, deaths counted for 14 days
Description: Each test compound was suspended in a 0.2% CMC-Na solution in various concentrations to make test suspension. The test suspensions were administered orally to male ICR mice (10 in each group) at various doses. The number of dead mice was counted for 14 days and the value of mediam lethal dose (LD50, g/kg) was calculated by the Hitchifield-Wilcoxon method.

Q: Which results are given for `CC(C)OC(=O)C(C(=O)Nc1ccc(O)cc1)=C1SC=CS1` [22(a), Isopropyl 2-(1,3-dithiol-2-ylidene)-2-[N-(4-hydroxyphenyl)carbamoyl]acetate]?
A: inhibition in vivo at 50 mg/kg [1]: 99.2%; ED50 [2]: 12.5 mg/kg; LD50 at 336 h [3]: > 5000 mg/kg

Source: patent US5158950A, “1,3-dithiol-2-ylidene derivatives and process for the preparation thereof” (Yuhan Corporation, Ltd., priority 1987, dated 1992)
